In patent publication US20140031324A1, “COMPOUND COMPOSITION FOR INHALATION USED FOR TREATING ASTHMA” (Intech Biopharm Ltd., priority 2010, published 2014):

Columns and labels:
OVA-sensitized mice = assay: Albumin (OVA)-induced asthma model in mice; methacholine-induced tracheal contraction (airway hyperresponsiveness, FlexiVent); assay type: in vivo, Balb/c mice; settings: single super high dose, alone or in combination, intratracheal, FIGS. 2 to 4
Description: An albumin-inducing asthma model in mice was used to conduct related tests. In accordance with the control group and the experimental group, the mice were divided into the different groups to conduct the experiment. The control group includes a normal control group which none sensitized mice are given saline (no drug), and an asthma control group which sensitized mice are treated with vehicle. The experimental group is divided into sub-group according to different methods of administering drugs. Respectively, such as the group which is using different dosage and different frequency of the beta2-agonist alone and the group which is using different dosage and different frequency of the pharmaceutical combination of the beta2-agonist with the corticosteroid.
The mice which are for sensitization all experience three times of the peritoneal albumin (OVA) injection with ten-day intervals in advance, on the 24th day, collect the blood sample and exam the IgE to confirm allergy. Then, on the 26th day, albumin was administered in the nasal cavities of the mice. And, from the 30th day, the intratracheal administration is divided into groups of once time dosing and seven-day dosing which is further divided into once or twice daily groups. After the last dose, perform a tracheotomy and intubation and use instruments collect the data of that Methacholine (MCh), induces tracheal contraction. […]

[1] = long acting beta-2 agonists (LABA); cited from earlier work

Row | Structure (SMILES) | acute drug tolerance (ability of trachea relaxing) (OVA-sensitized mice) | duration of action [1]
1 | CCC(NC(C)C)C(O)c1ccc(O)c2[nH]c(=O)ccc12 (stereo not drawn) [Procaterol] | acute drug tolerance phenomenon of reducing the ability of trachea relaxing | 
2 | OCc1cc(C(O)CNCCCCCCOCCCCc2ccccc2)ccc1O (stereo not drawn) [Salmeterol, Salmeterol Xinafoate] | acute drug tolerance phenomenon of reducing the ability of trachea relaxing | up to twelve
